Data taken from US20080045504A1, “Benzonitrile Derivatives to Treat Musculoskeletal Frailty” (PFIZER PRODUCTS INC., priority 2004, published 2008).

Molecular target: T1, recombinant human androgen receptor (hAR) (Homo sapiens, UniProt P10275)
T1 construct: made in house; host or cells: baculovirus/Sf9 insect cells (crude extract)
T1 sequence (P10275 1-920): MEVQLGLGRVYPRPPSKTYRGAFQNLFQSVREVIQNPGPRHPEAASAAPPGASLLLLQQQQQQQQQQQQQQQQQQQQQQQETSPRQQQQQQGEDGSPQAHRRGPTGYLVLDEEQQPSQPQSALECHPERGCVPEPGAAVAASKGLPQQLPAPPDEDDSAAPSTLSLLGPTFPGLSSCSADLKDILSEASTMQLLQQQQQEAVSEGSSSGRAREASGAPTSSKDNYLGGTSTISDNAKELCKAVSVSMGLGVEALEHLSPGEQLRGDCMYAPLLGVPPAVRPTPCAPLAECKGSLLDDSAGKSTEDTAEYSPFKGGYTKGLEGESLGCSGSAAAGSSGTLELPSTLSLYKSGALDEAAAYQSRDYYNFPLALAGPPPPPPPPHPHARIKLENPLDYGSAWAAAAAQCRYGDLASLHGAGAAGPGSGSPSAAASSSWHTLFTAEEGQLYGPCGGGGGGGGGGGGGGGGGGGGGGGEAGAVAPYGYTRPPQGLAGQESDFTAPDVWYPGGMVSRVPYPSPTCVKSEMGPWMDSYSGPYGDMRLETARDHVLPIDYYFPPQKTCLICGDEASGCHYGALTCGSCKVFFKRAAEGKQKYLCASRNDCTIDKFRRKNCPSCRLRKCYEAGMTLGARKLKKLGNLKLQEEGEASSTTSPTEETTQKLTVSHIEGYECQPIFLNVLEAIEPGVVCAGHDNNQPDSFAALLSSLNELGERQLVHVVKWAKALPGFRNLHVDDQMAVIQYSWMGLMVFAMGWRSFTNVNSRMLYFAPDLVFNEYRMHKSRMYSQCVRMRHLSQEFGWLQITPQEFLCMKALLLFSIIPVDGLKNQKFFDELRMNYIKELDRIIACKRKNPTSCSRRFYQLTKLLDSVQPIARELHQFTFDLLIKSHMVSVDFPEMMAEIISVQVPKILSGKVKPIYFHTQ
Test: Human androgen receptor binding analysis (3H-DHT competitive binding)
Protocol: The following is a brief description of the assay that determines the affinity of a compound for the recombinant human androgen receptor (hAR). Competitive binding analysis is performed on baculovirus/Sf9 generated hAR extracts in the presence or absence of differing concentrations of drug and a fixed concentration of ^3H-dihydrotestosterone (^3H-DHT) as tracer. This binding assay method is a modification of a protocol previously described (Chang, et. al. J. Steroid Biochem. 20(1):11-17 1984). Briefly, progressively decreasing concentrations of compounds are incubated in the presence of hAR extract (Chang et al. P.N.A.S. Vol. 89, pp. 5546-5950, 1992), hydroxylapatite and 1 nM ^3H-DHT for one hour at 4° C. Subsequently, the binding reactions are washed three times to completely remove excess unbound ^3H-DHT. hAR bound ^3H-DHT levels are determined in the presence of compounds (=competitive binding) and compared to levels bound when no competitor is present (=maximum binding). Compound binding affinity to the hAR is expressed as the concentration of compound at which one half of the maximum binding is inhibited (the IC50).

SMILES: CC[C@H]1CCCCN1c1ccc(C#N)c(C(F)(F)F)c1 [Example 1, 4-(2-(S)-Ethyl-piperidin-1-yl)-2-trifluoromethyl-benzonitrile]
- IC50: 5.21 nM
